System: HeLa cells
Test: GFP-NLS protein transduction assay (flow cytometry: Pos cells %, viability %, relative fluorescence intensity; microscopy)
Settings: for Relative fluorescence intensity (FL1-A) (n = 3): Table 10.3, Protocol C
[1] = HeLa, Protocol B, 35 μM shuttle, 5 μM GFP-NLS, 10 seconds
[2] = Table 10.3a, Protocol B, HeLa, shuttle 50 μM, GFP-NLS 5 μM, 10 seconds

## CC[C@H](C)[C@H](NC(=O)[C@H](CCCCN)NC(=O)[C@H](CCCCN)NC(=O)[C@H](Cc1ccccc1)NC(=O)[C@H](CC(C)C)NC(=O)[C@H](CCCCN)NC(=O)[C@H](Cc1c[nH]c2ccccc12)NC(=O)[C@H](CCCCN)NC(=O)[C@H](Cc1c[nH]cn1)NC(=O)[C@H](Cc1c[nH]cn1)NC(=O)[C@H](Cc1c[nH]cn1)NC(=O)[C@H](Cc1c[nH]cn1)NC(=O)[C@H](Cc1c[nH]cn1)NC(=O)[C@@H](N)Cc1c[nH]cn1)C(=O)NCC(=O)N[C@@H](C)C(=O)N[C@H](C(=O)N[C@@H](CC(C)C)C(=O)N[C@@H](CCCCN)C(=O)N[C@H](C(=O)N[C@@H](CC(C)C)C(=O)N[C@H](C(=O)N[C@H](C(=O)NCC(=O)N[C@@H](Cc1ccc(O)cc1)C(=O)N[C@@H](C)C(=O)N[C@@H](CCCNC(=N)N)C(=O)N[C@@H](C)C(=O)N[C@@H](C)C(=O)N[C@@H](C)C(=O)N[C@@H](CCCNC(=N)N)C(=O)N[C@@H](CCC(N)=O)C(=O)N[C@@H](C)C(=O)N[C@@H](CCCNC(=N)N)C(=O)N[C@@H](C)C(=O)O)[C@@H](C)O)[C@@H](C)O)C(C)C)C(C)C [His-CM18-PTD4]
[1]
  Cell viability (%) (±St. Dev.; n = 3): 94.6 ± 0.4%
  Mean % cells with GFP signal (±St. Dev.; n = 3): 72.3 ± 5.3%
Table 9.1, Protocol A, HeLa, shuttle 10 μM, GFP-NLS 5 μM, 1 hour
  Mean % cells with GFP signal (±St. Dev.; n = 3): 25.4 ± 3.6%
Table 9.1, Protocol B, HeLa, shuttle 35 μM, GFP-NLS 5 μM, 10 seconds
  Mean % cells with GFP signal (±St. Dev.; n = 3): 78.3 ± 5.3%
Table 9.2, Protocol B, HeLa, shuttle 10 μM, GFP-NLS 5 μM, 10 seconds
  Mean % cells with GFP signal (±St. Dev.; n = 3): 25.3 ± 3.6%
Table 9.2, Protocol B, HeLa, shuttle 25 μM, GFP-NLS 5 μM, 10 seconds
  Mean % cells with GFP signal (±St. Dev.; n = 3): 62.1 ± 6.1%
Table 9.2, Protocol B, HeLa, shuttle 35 μM, GFP-NLS 5 μM, 10 seconds
  Mean % cells with GFP signal (±St. Dev.; n = 3): 77.7 ± 7.8%
Table 9.2, Protocol B, HeLa, shuttle 50 μM, GFP-NLS 5 μM, 10 seconds
  Mean % cells with GFP signal (±St. Dev.; n = 3): 73.2 ± 5.2%
Table 10.1, Protocol B, HeLa, shuttle 50 μM, GFP-NLS 5 μM, 10 seconds
  Mean % cells with GFP signal (±St. Dev.; n = 3): 68 ± 2.2%
Table 10.2, Protocol B, HeLa, shuttle 10 μM, GFP-NLS 5 μM, incubation 1 min.
  Mean % cells with GFP signal (±St. Dev.; n = 3): 50.6 ± 3.5%
Table 10.2, Protocol B, HeLa, shuttle 10 μM, GFP-NLS 5 μM, incubation 2 min.
  Mean % cells with GFP signal (±St. Dev.; n = 3): 74 ± 3.3%
Table 10.2, Protocol B, HeLa, shuttle 10 μM, GFP-NLS 5 μM, incubation 5 min.
  Mean % cells with GFP signal (±St. Dev.; n = 3): 82.7 ± 5.0%
HeLa, shuttle 10 μM, GFP-NLS 5 μM, incubation 1 min.
  Relative fluorescence intensity (FL1-A) (n = 3): 524 151
HeLa, shuttle 10 μM, GFP-NLS 5 μM, incubation 2 min.
  Relative fluorescence intensity (FL1-A) (n = 3): 755 624
HeLa, shuttle 10 μM, GFP-NLS 5 μM, incubation 5 min.
  Relative fluorescence intensity (FL1-A) (n = 3): 173 930
[2]
  Cell viability (%) (±St. Dev.; n = 3): 92 ± 3.6%
  Mean % cells with GFP signal (±St. Dev.; n = 3): 68 ± 2.2%
Table 10.3e, Protocol B, HeLa, shuttle 20 μM, GFP-NLS 5 μM, 1 minute
  Mean % cells with GFP signal (±St Dev.; n = 3): 60.3 ± 3.2%
Peptide 20 μM, GFP-NLS 5 μM, 1 minute, Protocol B (Table 10.3e)
  GFP-NLS transduction efficiency: 60%
Shuttle 35 μM, GFP-NLS 5 μM, 10 seconds, Protocol B
  GFP-NLS delivery (microscopy, in words): successfully transduced and delivered to the nucleus and/or the cytosol
Shuttle 50 μM, GFP-NLS 5 μM, exposed 10 seconds, Protocol B, microscopy
  time by which GFP-NLS is delivered to the nucleus: ≤ 2 min

Source: patent US12286632B2, “Rationally-designed synthetic peptide shuttle agents for delivering polypeptide cargos from an extracellular space to the cytosol and/or nucleus of a target eukaryotic cell, uses thereof, methods and kits relating to same” (Feldan Bio Inc., priority 2016, dated 2025)
